Test results from patent publication US9937227B2, “Humanin, analogs and cancer treatment methods and uses thereof” (LOS ANGELES BIOMEDICAL RESEARCH INSTITUTE AT HARBOR-UCLA …, priority 2014, dated 2018).
Structures can show the parent of a compound that is named as a salt. Peptide text beside a SMILES is read from it.

How the values were obtained:
[1] = tested on: germ cells in seminiferous tubules; test: DOX-induced germ cell apoptosis in mouse seminiferous tubule cultures ex vivo (TUNEL); type: cell-based; details: 12 hours
Method: A total of 15 young adult (12-13 week-old) mice were used for these ex vivo studies. The animals were sacrificed with a 5% pentobarbital (200 mg/Kg) IP injection. Testes were dissected and after removing the tunica albuginea, seminiferous tubules isolated from testes were cut into small segments under a dissecting microscope and light and dark segments were separated by dissection. Ten to twelve segments were placed (2 mm in length) in each well on a six well plate with 2 ml serum free Ham F-10 culture medium (GIBCO, Life Technologies, Thermo Fisher Scientific Corp., Carlsbad, Calif.) with the following treatments: control (Con, n=10), heat (43° C., 15 minutes, used as a positive control, n=10); HN 10 μg/mL (n=9); DOX 10 mcM (Dox10, n=10); and DOX 10 mcM+Humanin 10 μg/mL (Dox10+HN, n=10). For these experiments, n represents the total number of times the treatment was repeated using different animals. After 12 hours of incubation at 34° C. the seminiferous tubules from each treatment group were used to make “squashed” seminiferous tubule samples on a slide for TUNEL (TdT-mediated dUTP nick-end labeling) assay to detect germ cell apoptosis (Erkkila, et al., 1997; Toppari & Parvinen, 1985). To quantify the rate of germ cell apoptosis under a light microscope at 400× magnification, a square grid fitted within the eyepiece provided a reference area of 62,500 μm^2. The TUNEL positive apoptotic germ cells within the frame of grid were counted in 4 segments of seminiferous tubules in each group. The incidence of germ cell apoptosis was expressed as the number of apoptotic germ cells per mm^2.
A total of 15 mice were used for ex vivo studies. The animals were sacrificed and seminiferous tubules isolated from testes were cut into small segments under a dissecting microscope to identify light (early stages I-IV and late stages XI-XII) of the seminiferous epithelium) and dark (middle stages VII-VIII) segments. […] To quantify the rate of germ cell apoptosis, the squashed segments of seminiferous tubules were examined with an American Optical Microscope (Scientific Instruments, Buffalo, N.Y.) with a 40× objective and a 10× eyepiece lens. […] The TUNEL positive apoptotic germ cells within the frame of grid were counted in 4 segments of seminiferous tubules in each group. The incidence of germ cell apoptosis was expressed as the number of apoptotic germ cells per mm^2.

[2] = tested on: male germ cells; type: in vivo; details: single IP; HN, HN-S7A, HN-C8P, HN-L12A 40 mg/Kg BW; HNG, HNG-F6A 5 mg/Kg BW; 24 hours
Method: For the HN analog experiments, male mice were divided into seven groups (n=4-5 per group) and received one of the following treatments and sacrificed after 24 hours: 1) vehicle (control); 2) a single intra-peritoneal (IP) injection of HN peptide [HN, 40 mg/Kg body weight (BW)]; 3) a single IP injection of CP (CP, 200 mg/Kg BW); 4) IP injection of CP and HN (CP+HN); 5) a single IP injection of each HN analog (HNG 5 mg/Kg BW, HNG-F6A 5 mg/Kg BW, HN-S7A 40 mg/Kg BW, HN-C8P 40 mg/Kg BW, or HN-L12A 40 mg/Kg BW); 6) IP injection of CP and each HN analog (CP+HNG, HNG-F6A, HN-S7A, HN-C8P, or HN-L12A); and 7) IP injection of CP+HN+HN analog (HN-S7A, HN-C8P, or HN-L12A; to assess whether the analogs has enhancing or inhibitory effect on HN).
To facilitate testicular fixation by using a whole-body perfusion technique, all animals were injected with heparin (130 IU/100 g BW, IP) 15 min before a lethal injection of sodium pentobarbital (200 mg/kg BW, IP) (Lue Y H, et al., 1999). One testis was removed and weighed after perfusion with saline. Portions of testicular parenchyma were snap frozen in liquid nitrogen, and stored at −80 C for Western blotting. The other testis was fixed by vascular perfusion with Bouin's solution, and processed with routine paraffin embedding for in situ detection of apoptosis.
Detection of apoptotic cells was performed in Bouin's'-fixed, paraffin-embedded testicular sections by the terminal deoxynucleotidyl transferase (TdT)-mediated deoxy-UTP nick end labeling (TUNEL) technique (Sinha Hikim A P, et al., 1997) using an ApopTag-peroxidase kit (Chemicon International, Inc., Temecula, Calif.). Enumeration of the Sertoli cell nuclei with distinct nucleoli and apoptotic germ cell population was quantified at stages I-IV (early stages), stages VII-VIII (middle stages) and stages XI-XII (late stages) of the seminiferous epithelial cycle using an Olympus BH-2 microscope (New Hyde Park, N.Y.). Stages were identified according to the criteria proposed by Russell et al for paraffin sections (Russell L, 1977). The rate of germ cell apoptosis (apoptotic index, AI) was expressed as the number of apoptotic germ cells per Sertoli cells (Sinha Hikim A P, et al., 1997).

[3] = tested on: testosterone; details: with or without EDS pre-treatment
[4] = tested on: male germ cells; details: testicular cross sections, 24 hours; HN 40 mg/Kg or CP 200 mg/Kg single IP
Method: Young adult mice (12-13 weeks) were randomly divided into 4 groups with 4 or 5 mice per group and received an IP injection: control (Con) (saline), HN (40 mg/Kg BW), CP (200 mg/Kg BW), and the combination of CP+HN. These experiments were repeated four times. In the CP+HN group, mice received an injection of HN followed by an injection of CP about 15 minutes later. Twenty-four hours after injections animals were sacrificed using 5% pentobarbital (200 mg/kg BW) IP injection. Blood was collected and one testis was removed, weighed and frozen in liquid nitrogen. The mouse was next perfused with saline and then subsequently perfuse-fixed with Bouin's solution as previously described and apoptosis was assessed by TUNEL assay (Lue, et al., 2009).
For detection of apoptosis in testicular sections, the paraffin embedded testis tissue was cut into 5 micron sections and stained with the TdT-mediated dUTP nick-end labeling assay (TUNEL Apoptosis Detection Kit, Millipore, Billerica, Mass.) to detect apoptosis of germ cells in the testis (Lue, et al., 2009). Testicular sections assayed by TUNEL were examined under a light microscope and the apoptotic germ cells were blindly and manually counted. The seminiferous tubules in the testis section under the microscope were grouped as stages IX-IV (early-late stages of spermatogenesis) and V-VIII (middle stages of spermatogenesis). Germ cell apoptosis was quantified as the number of seminiferous tubules containing apoptotic spermatogonia, spermatoctyes, round spermatids and spermatozoa per 100 seminiferous tubules (Drumond, et al., 2011).

## COc1cccc2c1C(=O)c1c(O)c3c(c(O)c1C2=O)C[C@@](O)(C(=O)CO)C[C@@H]3O[C@H]1C[C@H](N)[C@H](O)[C@H](C)O1 [DOX, doxorubicin hydrochloride]
[1]; HN 10 μg/mL alone or DOX 10 μM (high dose) alone, hydrochloride
  germ cell apoptosis compared with control: significantly higher number of apoptotic germ cells
[1]; HN 10 μg/mL alone or DOX 10 μM (high dose) alone, listed as doxorubicin, hydrochloride
  germ cell apoptosis compared with control: significantly increased apoptosis
[1]; doxorubicin 1 μM (low dose)
  germ cell apoptosis compared with control: increased apoptosis but did not reach statistical difference

## CC[C@H](C)[C@H](NC(=O)[C@H](CCC(=O)O)NC(=O)[C@H](CO)NC(=O)[C@@H](NC(=O)[C@H](CC(C)C)NC(=O)[C@H](CC(C)C)NC(=O)[C@H](CC(C)C)NC(=O)[C@H](CC(C)C)NC(=O)[C@@H]1CCCN1C(=O)[C@H](CO)NC(=O)[C@H](Cc1ccccc1)NC(=O)CNC(=O)[C@H](CCCNC(=N)N)NC(=O)[C@@H]1CCCN1C(=O)[C@H](C)NC(=O)[C@@H](N)CCSC)[C@@H](C)O)C(=O)N[C@@H](CC(=O)O)C(=O)N[C@@H](CC(C)C)C(=O)N1CCC[C@H]1C(=O)N[C@H](C(=O)N[C@@H](CCCCN)C(=O)N[C@@H](CCCNC(=N)N)C(=O)N[C@@H](CCCNC(=N)N)C(=O)N[C@@H](C)C(=O)O)C(C)C [HN-C8P] (H-MAPRGFSPLLLLTSEIDLPVKRRA-OH; N-terminus and C-terminus assumed)
[2]
  spontaneous germ cell apoptosis, peptide alone: did not change

## CC[C@H](C)[C@H](NC(=O)[C@H](CCC(=O)O)NC(=O)[C@H](CO)NC(=O)[C@@H](NC(=O)[C@H](C)NC(=O)[C@H](CC(C)C)NC(=O)[C@H](CC(C)C)NC(=O)[C@H](CC(C)C)NC(=O)[C@H](CS)NC(=O)[C@H](CO)NC(=O)[C@H](Cc1ccccc1)NC(=O)CNC(=O)[C@H](CCCNC(=N)N)NC(=O)[C@@H]1CCCN1C(=O)[C@H](C)NC(=O)[C@@H](N)CCSC)[C@@H](C)O)C(=O)N[C@@H](CC(=O)O)C(=O)N[C@@H](CC(C)C)C(=O)N1CCC[C@H]1C(=O)N[C@H](C(=O)N[C@@H](CCCCN)C(=O)N[C@@H](CCCNC(=N)N)C(=O)N[C@@H](CCCNC(=N)N)C(=O)N[C@@H](C)C(=O)O)C(C)C [HN-L12A] (H-MAPRGFSCLLLATSEIDLPVKRRA-OH; N-terminus and C-terminus assumed)
[2]
  spontaneous germ cell apoptosis, peptide alone: did not change

## CC[C@H](C)[C@H](NC(=O)[C@H](CCC(=O)O)NC(=O)[C@H](CO)NC(=O)[C@@H](NC(=O)[C@H](CC(C)C)NC(=O)[C@H](CC(C)C)NC(=O)[C@H](CC(C)C)NC(=O)[C@H](CC(C)C)NC(=O)[C@H](CS)NC(=O)[C@H](C)NC(=O)[C@H](Cc1ccccc1)NC(=O)CNC(=O)[C@H](CCCNC(=N)N)NC(=O)[C@@H]1CCCN1C(=O)[C@H](C)NC(=O)[C@@H](N)CCSC)[C@@H](C)O)C(=O)N[C@@H](CC(=O)O)C(=O)N[C@@H](CC(C)C)C(=O)N1CCC[C@H]1C(=O)N[C@H](C(=O)N[C@@H](CCCCN)C(=O)N[C@@H](CCCNC(=N)N)C(=O)N[C@@H](CCCNC(=N)N)C(=O)N[C@@H](C)C(=O)O)C(C)C [HN-S7A] (H-MAPRGFACLLLLTSEIDLPVKRRA-OH; N-terminus and C-terminus assumed)
[2]
  spontaneous germ cell apoptosis, peptide alone: did not change

## CC[C@H](C)[C@H](NC(=O)[C@H](CCC(=O)O)NC(=O)CNC(=O)[C@@H](NC(=O)[C@H](CC(C)C)NC(=O)[C@H](CC(C)C)NC(=O)[C@H](CC(C)C)NC(=O)[C@H](CC(C)C)NC(=O)[C@H](CS)NC(=O)[C@H](CO)NC(=O)[C@H](C)NC(=O)CNC(=O)[C@H](CCCNC(=N)N)NC(=O)[C@@H]1CCCN1C(=O)[C@H](C)NC(=O)[C@@H](N)CCSC)[C@@H](C)O)C(=O)N[C@@H](CC(=O)O)C(=O)N[C@@H](CC(C)C)C(=O)N1CCC[C@H]1C(=O)N[C@H](C(=O)N[C@@H](CCCCN)C(=O)N[C@@H](CCCNC(=N)N)C(=O)N[C@@H](CCCNC(=N)N)C(=O)N[C@@H](C)C(=O)O)C(C)C [HNG-F6A] (H-MAPRGASCLLLLTGEIDLPVKRRA-OH; N-terminus and C-terminus assumed)
[2]
  spontaneous germ cell apoptosis, peptide alone: did not change

## CC[C@H](C)[C@H](NC(=O)[C@H](CCC(=O)O)NC(=O)[C@H](CO)NC(=O)[C@@H](NC(=O)[C@H](CC(C)C)NC(=O)[C@H](CC(C)C)NC(=O)[C@H](CC(C)C)NC(=O)[C@H](CC(C)C)NC(=O)[C@H](CS)NC(=O)[C@H](CO)NC(=O)[C@H](Cc1ccccc1)NC(=O)CNC(=O)[C@H](CCCNC(=N)N)NC(=O)[C@@H]1CCCN1C(=O)[C@H](C)NC(=O)[C@@H](N)CCSC)[C@@H](C)O)C(=O)N[C@@H](CC(=O)O)C(=O)N[C@@H](CC(C)C)C(=O)N1CCC[C@H]1C(=O)N[C@H](C(=O)N[C@@H](CCCCN)C(=O)N[C@@H](CCCNC(=N)N)C(=O)N[C@@H](CCCNC(=N)N)C(=O)N[C@@H](C)C(=O)O)C(C)C [HN]
[3]
  intratesticular testosterone levels: no significant effects
  serum testosterone levels: no significant effects
[2]
  spontaneous germ cell apoptosis, peptide alone: did not change
[1]; HN 10 μg/mL alone or DOX 10 μM (high dose) alone
  germ cell apoptosis compared with control: no significant effect
[4]
  germ cell apoptosis compared to control: no significant effect
